# Reference: patent US8158820B2, “Compounds” (AstraZeneca AB, priority 2003, dated 2012)
# Target: T1, CRTh2 (Homo sapiens, UniProt Q9Y5Y4)
# T1 construct: expressed in transfected cells; host or cells: HEK cells (stably transfected, geneticin selection; membranes prepared)
# T1 sequence (Q9Y5Y4 1-395): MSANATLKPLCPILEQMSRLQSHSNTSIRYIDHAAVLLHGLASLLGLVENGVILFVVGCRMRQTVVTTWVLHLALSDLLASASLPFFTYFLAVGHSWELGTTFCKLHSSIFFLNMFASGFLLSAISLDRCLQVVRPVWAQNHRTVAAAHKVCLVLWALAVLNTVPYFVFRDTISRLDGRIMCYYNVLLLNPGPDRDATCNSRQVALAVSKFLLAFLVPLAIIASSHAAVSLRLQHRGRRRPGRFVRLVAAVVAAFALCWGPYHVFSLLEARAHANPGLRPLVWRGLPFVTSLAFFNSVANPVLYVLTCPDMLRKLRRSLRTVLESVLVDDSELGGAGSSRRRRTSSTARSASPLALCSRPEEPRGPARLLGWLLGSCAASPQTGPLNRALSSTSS
# Assay: Ligand Binding Assay ([3H]PGD2, SPA beads, HEK cell membranes)
# Conditions: [3H]PGD2 binding to membranes of HEK cells expressing rhCRTh2/Gα16
# Experimental: [^3H]PGD2 was purchased from Perkin Elmer Life Sciences with a specific activity of 100-210 Ci/mmol. All other chemicals were of analytical grade.
# HEK cells expressing rhCRTh2/Gα16 were routinely maintained in DMEM containing 10% Foetal Bovine Serum (HyClone), 1 mg/ml geneticin, 2 mM L-glutamine and 1% non-essential amino acids. For the preparation of membranes, the adherent transfected HEKcells were grown to confluence in two layer tissue culture factories (Fisher, catalogue number TKT-170-070E). Maximal levels of receptor expression were induced by addition of […] sodium butyrate for the last 18 hours of culture. The adherent cells were washed once with phosphate buffered saline (PBS, 50 ml per cell factory) and detached by the addition of 50 ml per cell factory of ice-cold membrane homogenisation buffer [20 mM HEPES (pH 7.4), 0.1 mM dithiothreitol, 1 mM EDTA, 0.1 mM phenyl methyl sulphonyl fluoride and 100 μg/ml bacitracin]. […] The final pellet was re-suspended in 4 ml of membrane homogenisation buffer per cell factory used and the protein content determined. […]
# All assays were performed in Corning clear bottomed, white 96-well NBS plates (Fisher). […] (The optimum coating concentrations were determined for each batch of membranes) The beads were pelleted by centrifugation (800×g for 7 minutes at 4° C.), washed once with assay buffer (50 mM HEPES pH 7.4 containing 5 mM magnesium chloride) and finally re-suspended in assay buffer at a bead concentration of 10 mg/ml.
# Each assay contained 20 μl of 6.25 nM [^3H]PGD2, 20 μl membrane saturated SPA beads both in assay buffer and 10 μl of compound solution or 13,14-dihydro-15-keto prostaglandin D2 (DK-PGD2, for determination of non-specific binding, Cayman chemical company). […] The assay plate was incubated at room temperature for 2 hours and counted on a Wallac Microbeta liquid scintillation counter (1 minute per well).
row,Compound,IC50 [µM]
1,"CS(=O)(=O)c1ccc(-c2cc(Cl)ccc2OCC(=O)O)cc1 [Example 9, {[5-Chloro-4′-(methylsulfonyl)biphenyl-2-yl]oxy}acetic acid]",0.0398
2,"CN(c1ncc(-c2cc(Cl)ccc2OCC(=O)O)cn1)S(C)(=O)=O [Example 25, (4-Chloro-2-{2-[methyl(methylsulfonyl)amino]pyrimidin-5-yl}phenoxy)acetic acid]",0.01
3,"CNS(=O)(=O)c1ccc(-c2cc(C(F)(F)F)ccc2OCC(=O)O)cc1 [Example 133, [[4′-[(Methylamino)sulfonyl]-5-(trifluoromethyl)[1,1′-biphenyl]-2-yl]oxy]-acetic acid]",0.00631
